Entries after “also recorded” stand apart in the source; their conditions may differ.
What was measured:
NRF2/KEAP1 in MEFs = assay: NQO1 and NRF2 levels in mouse embryonic fibroblasts (MEFs), western blot; format: cell-based; conditions: wild-type MEFs; for Accumulation of total NRF2 protein: 5 hr exposure
Method: Mouse embryonic fibroblasts (MEFs) from wild-type (WT), NRF2-knockout (NRF2-KO) or KEAP1-knockout (KEAP1-KO) mice, were cultured in plastic dishes (Invitrogen) coated for 30 min with 0.1% (w/v) gelatin before use. The cell culture medium was Iscoves Modified Dulbecco's Medium (with L-glutamine) supplemented with human recombinant epidermal growth factor (10 ng/mL), 1× insulin/transferrin/selenium, and 10% (v/v) heat-inactivated FBS, all from Invitrogen. Cells were maintained at 5% CO2 in air at 37° C. For experiments, cells (250,000 per well) were grown for 24 hr on 6-well plates, and then treated with solvent control (0.1% DMSO, v/v) or compounds for either 5 hr or 24 hr. For western blot analysis, cells were washed twice with ice-cold phosphate buffered saline (PBS) and lysed in 150 μl of RIPA buffer (50 mM Tris-Cl pH 7.5, 150 mM NaCl, 0.5% sodium deoxycholate, 1% NP-40, 0.1% SDS and 1 mM EDTA), containing 1 protease inhibitor cocktail tablet (Roche) per 10 ml of buffer. Cell debris were removed by centrifugation at 16,300×g for […] at 4° C., and protein concentrations were determined by the BCA assay (Thermo). Proteins were resolved by SDS/PAGE, transferred to immobilon-P membranes, and probed with specific antibodies against NQO1 (1:1000) or NRF2 (1:1000). Equal loading was confirmed by probing the blots with an antibody against β-actin (mouse monoclonal, 1:10000), from Sigma, Dorset, United Kingdom.
For nuclear-cytoplasmic separation, WT MEFs (500,000 per dish) were grown for 24 hr on 6-cm plates, and then treated with solvent control (0.1% DMSO, v/v) or 0.5 μM MIND4-17. At the end of each treatment time, cells were placed on ice and washed twice with ice-cold PBS and subsequently lysed in buffer A [10 mM KCl, 5 mM MgCl2, 50 mM Tris-HCl (pH 7.5), 0.5% Nonidet P-40 (Roche), 1 mM dithioretitol (DTT) (Sigma), containing one protease inhibitor tablet and one phosphatase inhibitor tablet (both from Roche) per each 10 ml of buffer]. The lysates were subjected to centrifugation (Spectrafuge 24D, Labnet) at 1,000×g for 5 min at 4° C. The supernatant (cytoplasmic fraction) was transferred to a fresh Eppendorf tube. The pellet (nuclear fraction) was washed three times in buffer A before being dissolved in buffer B [2% SDS, 150 mM NaCl, 65 mM Tris-HCl (pH 8.0)] and sonicated for 30 sec. Finally, the lysates were subjected to western blot analysis. The blots were probed with antibodies against GAPDH (rabbit polyclonal, 1:5000) and Lamin A/C (rabbit polyclonal, 1:1000, Gene Tex, Calif., United States of America) to confirm fraction purity and equal protein loading.

[1] = target: human recombinant SIRT2 deacetylase (Homo sapiens (Human), UniProt Q8IXJ6); assay: Sirtuin biochemical deacetylation assay, SIRT2; conditions: for SIRT2 inhibition: dose-response
Chain of human recombinant SIRT2 deacetylase (Q8IXJ6 whole entry): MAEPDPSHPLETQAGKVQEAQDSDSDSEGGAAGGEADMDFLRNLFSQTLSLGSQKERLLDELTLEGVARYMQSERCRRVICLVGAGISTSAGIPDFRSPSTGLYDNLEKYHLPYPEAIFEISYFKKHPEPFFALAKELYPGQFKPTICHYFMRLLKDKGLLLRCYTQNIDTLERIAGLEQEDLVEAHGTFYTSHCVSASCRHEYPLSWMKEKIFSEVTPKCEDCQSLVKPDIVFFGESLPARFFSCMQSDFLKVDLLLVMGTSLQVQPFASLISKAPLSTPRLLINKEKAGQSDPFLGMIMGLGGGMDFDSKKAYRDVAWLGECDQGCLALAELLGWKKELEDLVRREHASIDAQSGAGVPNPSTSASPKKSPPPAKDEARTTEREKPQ
Method: Modulation of sirtuin activity by compounds was assessed using the Flour de Lys fluorescent biochemical assay in a 96-well format as described (Outeiro et al., 2007). The deacetylation reaction was performed at 37° C. for an hour in the presence of human recombinant enzymes: SIRT1 (BioMol-SE-239) 1 unit/per reaction, SIRT2 (BioMol-SE-251) 5 units/per reaction, or SIRT3 (BioMol-SE-270) 5 units/per reaction, compound of interest, standard buffer, 50 μM substrate, and 500 μM NAD^+ according to the manufacturer's protocol. […]

[2] = tested on: Nrf2-responsive proteins NQO1 and GCLM; assay: NRF2 responses in wild type and mutant SOD1 (G93A) primary astroglia; format: cell-based; conditions: wild type and mutant SOD1 (G93A) mouse primary astroglia
Excerpt: Primary glia was derived from wild type and mutant SOD1 (G93A) mice and treated with MIND4 and MIND4-17 at indicated doses. The expression NRF2 responsive NQO1 and GCLM proteins were detected by immunochemistry. […] Importantly, compounds had no effects on human mutant SOD1 transgene, expressing in mice from human promoter.

## O=[N+]([O-])c1ccc(Sc2nnc(COc3ccccc3)n2-c2ccccc2)c2ncccc12 [MIND4, 5-nitro-8-{[5-(phenoxymethyl)-4-phenyl-4H-1,2,4-triazol-3-yl]thio}quinoline]
NRF2/KEAP1 in MEFs
  Accumulation of total NRF2 protein: to much lesser extent
[1]; Table 1
  IC50: 1.7 µM
[1]; Table 3
  IC50: 3.5 µM
[1]
  SIRT2 inhibition: dose-dependent and selective inhibition of human recombinant SIRT2 deacetylase
[2]
  Induction of Nrf2-responsive proteins NQO1 and GCLM: dose-dependent induction

## O=[N+]([O-])c1ccc(Sc2nnc(COc3ccccc3)n2-c2ccccc2)nc1 [MIND4-17]
NRF2/KEAP1 in MEFs; 0.5 μM, from 30 min, elevated for at least 5 hr
  NRF2 levels in nuclear and cytoplasmic fractions: increase of NRF2 levels was detected
NRF2/KEAP1 in MEFs
  Accumulation of total NRF2 protein: readily detectable
[1]; Table 3
  IC50: > 50 µM
[1]
  SIRT2 inhibition: no inhibitory activity; also recorded: no detectable SIRT2 inhibition activity
[2]
  Induction of Nrf2-responsive proteins NQO1 and GCLM: dose-dependent induction
